According to article PMC3447791, “High Mannose-Binding Antiviral Lectin PFL from Pseudomonas fluorescens Pf0-1 Promotes Cell Death of Gastric Cancer Cell MKN28 via Interaction with α2-Integrin” (PLoS ONE, 2012):

Columns and labels:
PFL [1] = biological target: T1, PFL (Pseudomonas fluorescens, UniProt Q3KJ04); test: CFG printed glycan microarray v5.[…], fluorescence; type: binding; conditions: 10 μg/ml Alexa488-PFL; glycan immobilised on array
T1 construct: gene Pfl01_0508; full length, 132 residues, two homologous domains; pET101/D-TOPO with native stop codon, E. coli BL21 Star (DE3); Alexa Fluor 488 labelled for the array
T1 sequence (Q3KJ04 2-133): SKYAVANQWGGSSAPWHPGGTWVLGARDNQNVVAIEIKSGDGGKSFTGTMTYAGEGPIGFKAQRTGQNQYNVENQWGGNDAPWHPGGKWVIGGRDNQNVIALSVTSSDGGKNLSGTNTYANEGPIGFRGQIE

PFL [2] = biological target: T1, PFL; test: CFG printed glycan microarray v5.[…], fluorescence; type: binding; conditions: 10 μg/ml Alexa488-PFL; glycan immobilised on array; remark: listed apart in the source

M8 glycan [compound 212]
RFU (PFL [1]): 40759 RFU

M7 glycan [compound 211]
binding potency relative to M6 glycan (216) (PFL [2]): ~ 53%

M6 glycan [compound 216]
RFU (PFL [1]): 43471 RFU

fucosylated counterpart of pentasaccharide core of N-glycan (50) [compound 485]
RFU (PFL [1]): 746 RFU
